# Measured values published in US11059780B2, “Substituted pyrrolidine compound and use thereof” (Takeda Pharmaceutical Company Limited, priority 2017, dated 2021).
# Target: T1, human orexin type 2 receptor (hOX2R) (Homo sapiens, UniProt O43614)
# T1 construct: expressed in transfected cells
# T1 sequence (O43614 1-444): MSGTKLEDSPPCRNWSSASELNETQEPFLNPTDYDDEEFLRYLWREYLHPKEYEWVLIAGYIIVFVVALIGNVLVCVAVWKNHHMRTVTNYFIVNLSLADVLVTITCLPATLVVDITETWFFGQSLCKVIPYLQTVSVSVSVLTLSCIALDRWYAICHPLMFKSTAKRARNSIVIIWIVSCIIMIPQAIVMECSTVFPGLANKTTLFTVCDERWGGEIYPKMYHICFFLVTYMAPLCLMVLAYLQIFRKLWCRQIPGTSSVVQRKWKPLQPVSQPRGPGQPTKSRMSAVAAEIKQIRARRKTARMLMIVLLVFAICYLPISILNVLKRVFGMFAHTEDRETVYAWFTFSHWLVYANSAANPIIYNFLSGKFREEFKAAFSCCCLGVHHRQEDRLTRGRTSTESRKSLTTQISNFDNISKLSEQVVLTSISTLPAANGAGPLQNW
# Assay: Measurement of orexin type 2 receptor agonist activity (Fluo-4 calcium fluorescence, CHO cells forcibly expressing human OX2 receptor)
# Format: cell-based
# Details: test compound 3 μM, DMSO = 0%, orexin A (human) 10 nM = 100%
# From the text: Experimental Example 1: Obtainment of Cell Stably Expressing Human Orexin Type 2 Receptor (hOX2R)
# To obtain a cell clone stably expressing human orexin type 2 receptor, human orexin type 2 receptor cDNA was inserted into pcDNA3.1(+) plasmid vector (Invitrogen), and a plasmid DNA for expression of human orexin type 2 receptor (pcDNA3.1(+)/hOX2R) was cloned. The plasmid DNA was introduced into CHO-dhfr cell by an electroporation method, and human orexin type 2 receptor expressing clone cells were obtained by limiting dilution method by using G418 drug resistance as a selection marker.
# Experimental Example 2: Measurement of Orexin Type 2 Receptor Agonist Activity
# CHO cells forcibly expressing human OX2 receptor were seeded in each well of 384 well black transparent bottom plate (BD Falcon) at 7,500 cells/well, and cultured for one day in a 5% CO2 incubator at 37° C. After removal of the medium in the cell plate, assay buffer A containing a calcium indicator (HBSS (Life Technologies), 20 mM HEPES (Life Technologies), 0.1% BSA (Wako Pure Chemical Industries, Ltd.), 2.5 μg/mL Fluo-4 AM (DOJINDO Chemical), 0.08% Pluronic F127 (DOJINDO Chemical), 1.25 mM probenecid (DOJINDO Chemical)) was added at 30 μL/well. The plate was stood for 30 min in a 5% CO2 incubator at 37° C., and further stood at room temperature for 30 min. A test compound prepared by diluting with assay buffer B (HBSS, 20 mM HEPES, 0.1% BSA) was added at 10 μL/well, and the fluorescence value was measured by FDSSpCELL (Hamamatsu Photonics K.K.) every one sec for 1 min, and thereafter every two sec for 1 min 40 sec. The activity (%) of the test compound was calculated assuming that variation in the fluorescence value when DMSO was added instead of the test compound was 0% […], and variation in the fluorescence value when orexin A (human) (PEPTIDE INSTITUTE, INC.) was added at the final concentration of 10 nM was 100% […]. The activity of each compound at the concentration of 3 μM was shown below.
row,SMILES,"OX2R agonist activity (3 μM, %)"
1,"CO[C@@H]1CN(C(=O)c2cc(C)ccc2C)C[C@H]1Oc1cccc(NS(=O)(=O)N(C)C2COC2)c1 (relative stereo) [Example 45, trans-N′-(3-((1-(2,5-dimethylbenzoyl)-4-methoxypyrrolidin-3-yl)oxy)phenyl)-N-methyl-N-oxetan-3-ylsulfuric diamide]",82%
2,"CO[C@@H]1CN(C(=O)c2cc(C)ccc2C)C[C@H]1Oc1cccc(CS(=O)(=O)N(C)c2ccncc2)c1 (relative stereo) [Example 7, trans-1-(3-((1-(2,5-dimethylbenzoyl)-4-methoxypyrrolidin-3-yl)oxy)phenyl)-N-methyl-N-(pyridin-4-yl)methanesulfonamide]",32%
3,"CO[C@@H]1CN(C(=O)c2cc(C)ccc2C)C[C@H]1Oc1cccc(CS(=O)(=O)N2CCC23COC3)c1 (relative stereo) [Example 34, trans-(2,5-dimethylphenyl)(3-methoxy-4-(3-((6-oxa-1-azaspiro[3.3]hept-1-ylsulfonyl)methyl)phenoxy)pyrrolidin-1-yl)methanone]",87%
4,"CCc1cccc(C)c1C(=O)N1C[C@@H](OC)[C@H](Oc2cccc(C(F)S(=O)(=O)N(C)C3CCOCC3)c2)C1 (relative stereo) [Example 154, trans-1-(3-((1-(2-ethyl-6-methylbenzoyl)-4-methoxypyrrolidin-3-yl)oxy)phenyl)-1-fluoro-N-methyl-N-(tetrahydro-2H-pyran-4-yl)methanesulfonamide]",99%
5,"CO[C@@H]1CN(C(=O)c2cc(C)ccc2C)C[C@H]1Oc1cccc(NS(=O)(=O)N2CCC23CCOC3)c1 (stereo partly drawn) [Example 30, N-(3-(((3R,4R)-1-(2,5-dimethylbenzoyl)-4-methoxypyrrolidin-3-yl)oxy)phenyl)-6-oxa-1-azaspiro[3.4]octane-1-sulfonamide]",68%
6,"CO[C@@H]1CN(C(=O)c2cc(C)ccc2C)C[C@H]1Oc1cccc(NS(=O)(=O)N2CCOC(C)C2)c1 (relative stereo) [Example 54, trans-N-(3-((1-(2,5-dimethylbenzoyl)-4-methoxypyrrolidin-3-yl)oxy)phenyl)-2-methylmorpholine-4-sulfonamide]",85%
7,"CO[C@@H]1CN(C(=O)c2cc(C)ccc2C)C[C@H]1Oc1cccc(NS(=O)(=O)N(C)Cc2cccnc2)c1 (relative stereo) [Example 61, trans-N′-(3-((1-(2,5-dimethylbenzoyl)-4-methoxypyrrolidin-3-yl)oxy)phenyl)-N-methyl-N-(pyridin-3-ylmethyl)sulfuric diamide]",87%
8,"CCc1cccc(C)c1C(=O)N1C[C@@H](OC)[C@H](Oc2cccc(CS(=O)(=O)N(C)C3CCOCC3)c2)C1 [Example 146, 1-(3-(((3R,4R)-1-(2-ethyl-6-methylbenzoyl)-4-methoxypyrrolidin-3-yl)oxy)phenyl)-N-methyl-N-(tetrahydro-2H-pyran-4-yl)methanesulfonamide]",105%
9,"COc1cccc(C)c1C(=O)N1CC(OC)C(Oc2cccc(CS(=O)(=O)N3CCCC3c3ccc(C)nc3C)c2)C1 (stereo not drawn) [Example 124, trans-3-(3-(((2-(2,6-dimethylpyridin-3-yl)pyrrolidin-1-yl)sulfonyl)methyl)phenoxy)-4-methoxypyrrolidin-1-yl)(2-methoxy-6-methylphenyl)methanone]",99%
10,"CO[C@@H]1CN(C(=O)c2cc(C)ccc2C)C[C@H]1Oc1cccc(NS(=O)(=O)N(C)C2CCOCC2)c1 (relative stereo) [Example 47, trans-N′-(3-((1-(2,5-dimethylbenzoyl)-4-methoxypyrrolidin-3-yl)oxy)phenyl)-N-methyl-N-(tetrahydro-2H-pyran-4-yl)sulfuric diamide]",106%
11,"COc1cccc(OC)c1C(=O)N1C[C@@H](OC)[C@H](Oc2cccc(CS(=O)(=O)N3CCCC3c3ccccn3)c2)C1 (relative stereo) [Example 100, trans-(2,6-dimethoxyphenyl)(3-methoxy-4-(3-(((2-(pyridin-2-yl)pyrrolidin-1-yl)sulfonyl)methyl)phenoxy)pyrrolidin-1-yl)methanone]",93%
12,"CO[C@@H]1CN(C(=O)c2cc(C)ccc2C)C[C@H]1Oc1cccc(NS(=O)(=O)N2CCC(c3cccnc3)C2)c1 (relative stereo) [Example 53, trans-N-(3-((1-(2,5-dimethylbenzoyl)-4-methoxypyrrolidin-3-yl)oxy)phenyl)-3-(pyridin-3-yl)pyrrolidine-1-sulfonamide]",99%
13,"CO[C@@H]1CN(C(=O)c2cc(C)ccc2C)C[C@H]1Oc1cccc(CS(=O)(=O)N2CCC23CN(C(C)=O)C3)c1 (relative stereo) [Example 90, trans-1-(1-((3-((1-(2,5-dimethylbenzoyl)-4-methoxypyrrolidin-3-yl)oxy)benzyl)sulfonyl)-1,6-diazaspiro[3.3]hept-6-yl)ethanone]",96%
14,"COc1ccccc1C1CCCN1S(=O)(=O)Cc1cccc(O[C@@H]2CN(C(=O)c3cc(C)ccc3C)C[C@H]2OC)c1 (relative stereo) [Example 83, trans-(2,5-dimethylphenyl)(3-methoxy-4-(3-(((2-(2-methoxyphenyl)pyrrolidin-1-yl)sulfonyl)methyl)phenoxy)pyrrolidin-1-yl)methanone]",75%
15,"CO[C@@H]1CN(C(=O)C(F)(F)c2ccccc2)C[C@H]1Oc1cccc(CS(=O)(=O)N(C)C2CCOCC2)c1 (relative stereo) [Example 145, trans-1-(3-((1-(difluoro(phenyl)acetyl)-4-methoxypyrrolidin-3-yl)oxy)phenyl)-N-methyl-N-(tetrahydro-2H-pyran-4-yl)methanesulfonamide]",45%
16,"COc1cccc(C)c1C(=O)N1C[C@@H](OC)[C@H](Oc2cccc(NS(=O)(=O)N(C)C)c2)C1 [Example 135, N′-(3-(((3R,4R)-4-methoxy-1-(2-methoxy-6-methylbenzoyl)pyrrolidin-3-yl)oxy)phenyl)-N,N-dimethylsulfuric diamide]",90%
17,"COC1CN(C(=O)c2cc(C)ccc2C)CC1Oc1cccc(NS(=O)(=O)N2CC[C@H]3CCN(C)C[C@@H]32)c1 (relative stereo) [Example 76, trans-N-(3-((1-(2,5-dimethylbenzoyl)-4-methoxypyrrolidin-3-yl)oxy)phenyl)-6-methyloctahydro-1H-pyrrolo[2,3-c]pyridine-1-sulfonamide]",82%
18,"CO[C@@H]1CN(C(=O)c2cc(C)ccc2C)C[C@H]1Oc1cccc(CS(=O)(=O)N2CCC[C@H]2c2ccccn2)c1 [Example 57, (2,5-dimethylphenyl)((3R,4R)-3-methoxy-4-(3-((((2S)-2-(pyridin-2-yl)pyrrolidin-1-yl)sulfonyl)methyl)phenoxy)pyrrolidin-1-yl)methanone]",55%
19,"CCc1cccc(C)c1C(=O)N1CC[C@H](Oc2cccc(CS(=O)(=O)N(C)C3CCOCC3)c2)C1 [Example 159, 1-(3-(((3S)-1-(2-ethyl-6-methylbenzoyl)pyrrolidin-3-yl)oxy)phenyl)-N-methyl-N-(tetrahydro-2H-pyran-4-yl)methansulfo]",89%
20,"CO[C@@H]1CN(C(=O)c2cc(C)ccc2C)C[C@H]1Oc1cccc(CS(=O)(=O)N(C)C2CCOC(C)(C)C2)c1 (relative stereo) [Example 156, trans-1-(3-((1-(2,5-dimethylbenzoyl)-4-methoxypyrrolidin-3-yl)oxy)phenyl)-N-(2,2-dimethyltetrahydro-2H-pyran-4-yl)-N-methylmethanesulfonamide]",92%
